The target of experiment [1] is T1, Prostaglandin E2 receptor EP1 subtype (Homo sapiens, UniProt P34995).
T1 sequence (P34995 whole entry): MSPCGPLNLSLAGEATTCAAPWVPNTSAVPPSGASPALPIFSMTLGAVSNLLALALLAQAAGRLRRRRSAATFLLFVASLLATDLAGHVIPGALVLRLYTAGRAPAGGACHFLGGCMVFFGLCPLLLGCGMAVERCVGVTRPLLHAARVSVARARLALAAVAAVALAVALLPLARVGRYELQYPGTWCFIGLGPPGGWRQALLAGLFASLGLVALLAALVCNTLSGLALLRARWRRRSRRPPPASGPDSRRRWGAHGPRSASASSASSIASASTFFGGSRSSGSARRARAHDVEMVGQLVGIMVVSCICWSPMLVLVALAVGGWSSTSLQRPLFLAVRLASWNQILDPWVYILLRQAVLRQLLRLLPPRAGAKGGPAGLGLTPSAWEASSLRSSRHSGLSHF
Put plainly: Displacement of [3H]-PGE2 from human EP1 receptor expressed in recombinant HEK293 cell membranes after 90 mins by topcount scintillation counting analysis. (Displacement assays read how much labelled ligand stays bound in the presence of the test substance.)

Experiment [2] concerns the target T2, Prostaglandin E2 receptor EP3 subtype (Homo sapiens, UniProt P43115).
T2 sequence (P43115 whole entry): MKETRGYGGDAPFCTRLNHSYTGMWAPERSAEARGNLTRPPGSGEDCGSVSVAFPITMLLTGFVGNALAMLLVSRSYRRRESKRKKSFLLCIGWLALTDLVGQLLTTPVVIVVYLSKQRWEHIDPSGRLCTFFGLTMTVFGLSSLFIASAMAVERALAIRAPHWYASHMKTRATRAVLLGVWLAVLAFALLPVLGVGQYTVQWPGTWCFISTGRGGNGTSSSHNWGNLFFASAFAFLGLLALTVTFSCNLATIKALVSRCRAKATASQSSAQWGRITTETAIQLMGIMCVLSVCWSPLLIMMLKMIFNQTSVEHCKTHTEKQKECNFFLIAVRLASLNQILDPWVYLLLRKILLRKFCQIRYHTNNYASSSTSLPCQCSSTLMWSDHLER
The experiment is described as follows: Displacement of [3H]-PGE2 from human EP3 receptor expressed in HEK293 cell membranes after 90 mins by topcount scintillation counting analysis.

Structures are written as SMILES.

In general, Ki refers to the dissociation constant of the complex between target and ligand, obtained from inhibition or displacement.

For the compound `C[C@H](NC(=O)[C@H]1CCCCN1CCOc1ccccc1)c1ccc(C(=O)O)cc1`, the Ki was above 17.5 µM in experiment [1] and above 14 µM in experiment [2].

These data come from ChEMBL document CHEMBL3112423, “Selective EP4 Antagonist May Be Useful in Treating Arthritis and Arthritic Pain” (ACS Med Chem Lett, 2014).
